Data set [1] relates to RAW264.7. In words: Antiinflammatory activity against mouse RAW264.7 cells stably transfected with luciferase reporter gene assessed as inhibition of LPS-induced NF-kB activation preincubated for 30 min followed by LPS stimulation for 8 hrs by luciferase based assay. The format is functional, cell-based. In general terms: In a reporter assay the amount or activity of a reporter protein is the signal.

Data set [2] concerns RAW264.7. In words: Downregulation of nuclear NFATc1 expression in mouse RAW264.7 cells at 20 uM preincubated for 4 hrs followed by RANKL addition and measured after 24 hrs by Western blot analysis. The data set is classed as functional, cell-based. The following applies: time 28.0 hrs.
A further data set concerns BMDM. In words: Anti-osteoclastogenesis activity in RANKL/MCSF-induced mouse BMDM cells assessed as inhibition of osteoclast differentiation at 5 to 20 uM incubated for 3 days by TRAP-staining based microscopic analysis. The data set is classed as functional, cell-based. The following applies: dose 5-20 µM, time 3.0 day.
The subject of data set [3] is RAW264.7. In words: Cytotoxicity against mouse RAW264.7 cells assessed as reduction in cell viability at 5 to 20 uM incubated for 72 hrs by MTT assay. The settings on record: raw264.7, 72 h, dose 5-20 µM. The format is toxicity, cell-based. (Formazan colour is commonly taken as a measure of viable cells.)
Data set [4] addresses T1, Mitogen-activated protein kinase kinase kinase 7 (Mus musculus) (UniProt Q62073).
T1 sequence (whole entry): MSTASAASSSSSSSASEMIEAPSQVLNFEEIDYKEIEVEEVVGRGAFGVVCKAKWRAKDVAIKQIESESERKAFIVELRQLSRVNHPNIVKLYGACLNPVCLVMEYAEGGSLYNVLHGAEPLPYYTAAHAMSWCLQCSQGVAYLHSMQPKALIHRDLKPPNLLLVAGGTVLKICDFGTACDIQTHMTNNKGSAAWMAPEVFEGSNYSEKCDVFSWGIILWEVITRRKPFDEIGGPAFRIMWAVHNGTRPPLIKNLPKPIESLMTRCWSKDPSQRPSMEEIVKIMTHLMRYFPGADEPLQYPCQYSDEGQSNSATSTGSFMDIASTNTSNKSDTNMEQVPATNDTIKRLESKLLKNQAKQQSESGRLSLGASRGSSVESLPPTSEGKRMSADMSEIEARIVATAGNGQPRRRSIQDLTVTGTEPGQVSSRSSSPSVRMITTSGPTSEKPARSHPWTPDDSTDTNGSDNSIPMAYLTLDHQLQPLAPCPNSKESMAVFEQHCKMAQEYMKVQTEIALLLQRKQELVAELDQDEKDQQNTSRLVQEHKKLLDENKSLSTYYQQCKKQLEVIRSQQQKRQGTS
Kind of data set: Inhibition of TAK1 activation in mouse RAW264.7 cells at 5 to 20 uM preincubated for 4 hrs followed by RANKL addition and measured after 30 mins by Western blot analysis. The format is cell-based. The settings on record: dose 5-20 µM, time 4.5 hrs.

Data set [5] deals with RAW264.7. Kind of data set: Inhibition of p65 translocation in mouse RAW264.7 cells at 20 uM preincubated with RANKL for 24 hrs followed by compound addition and measured after 4 hrs by immunofluorescence analysis. The data set is classed as cell-based.
For data set [6], the target named is T2, NF-kappa-B inhibitor alpha (Mus musculus) (UniProt Q9Z1E3).
T2 sequence (whole entry): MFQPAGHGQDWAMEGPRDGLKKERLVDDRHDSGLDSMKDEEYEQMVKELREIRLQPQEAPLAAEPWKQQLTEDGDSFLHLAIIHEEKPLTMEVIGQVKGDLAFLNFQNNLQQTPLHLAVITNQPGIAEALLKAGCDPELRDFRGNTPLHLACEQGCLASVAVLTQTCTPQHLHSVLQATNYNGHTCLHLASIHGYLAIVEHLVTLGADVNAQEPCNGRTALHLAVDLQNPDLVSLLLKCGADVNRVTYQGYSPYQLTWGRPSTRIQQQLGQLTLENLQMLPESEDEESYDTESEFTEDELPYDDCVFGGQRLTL
In words: Inhibition of IkappaBalpha phosphorylation in mouse RAW264.7 cells at 5 to 20 uM preincubated for 4 hrs followed by RANKL addition and measured after 30 mins by Western blot analysis. The following applies: dose 5-20 µM. The data set is classed as cell-based. For orientation: A western blot detects proteins with antibodies after separation by electrophoresis.

Data set [7] concerns RAW264.7. In words: Inhibition of p65 translocation in mouse RAW264.7 cells at 5 to 20 uM preincubated for 4 hrs followed by RANKL addition and measured after 30 mins by Western blot analysis. The data set is classed as cell-based. The settings on record: dose 5-20 µM, time 4.5 hrs.
In data set [8] the test system is RAW264.7. In words: Upregulation of cytoplasmic p65 level in mouse RAW264.7 cells at 5 to 20 uM preincubated for 4 hrs followed by RANKL addition and measured after 30 mins by Western blot analysis. The data set is classed as functional, cell-based. The following applies: dose 5-20 µM, time 4.5 hrs.

Activity calls are given as the source filed them. The rule behind the calls is not given here.

We go through 2 compounds from ChEMBL document CHEMBL5634172, “Peniditerpenoids A and B: Oxidized Indole Diterpenoids with Osteoclast Differentiation Inhibitory Activity from a Mangrove-Sediment-Derived Penicillium sp” (J Nat Prod, 2024).

By IC50 is commonly meant the concentration at which inhibition is half-maximal.

As for `Cc1ccc(S(=O)(=O)/C=C/C#N)cc1`, the IC50 in the data set on RAW264.7 [1] is 5 µM.
On to `CC1(C)O[C@@]23CC[C@@]4(C)[C@@](O)(CC[C@@H](CC(=O)c5ccccc5N)[C@]4(C)C(=O)O)C2=CC(=O)[C@@H]1O3`, for which the result in the data set with RAW264.7 [2], in the data set on BMDM and in the data set on RAW264.7 [8] was Active. The Activity entry in the data set on RAW264.7 [3] was “Non-Toxic”. Also, the inhibition result (in [4]; in the data set with RAW264.7 [5]; in data set [6]; in the data set with RAW264.7 [7]) was “Active” in each case. For the same compound, the IC50 in the data set with RAW264.7 [1] stood at 11 µM.
